In patent publication US8975406B2, “Compound useful for the treatment of degenerative and inflammatory diseases” (Galapagos N.V., priority 2011, dated 2015):

Experiments:
Assay type in all cases: biochemical
Recombinant human JAK1 = target: T1, Recombinant human JAK1 (Homo sapiens, UniProt P23458); assay: JAK1 Ulight-JAK1 peptide assay; details: Ulight-JAK1(tyr1023) peptide, 7 μM ATP
T1 construct: catalytic domain (amino acids 866-1154; catalog number PV4774); purchased Invitrogen PV4774
Protocol: Recombinant human JAK1 (catalytic domain, amino acids 866-1154; catalog number PV4774) was purchased from Invitrogen. 1 ng of JAK1 was incubated with 20 nM Ulight-JAK1(tyr1023) peptide (Perkin Elmer catalog number TRF0121) in kinase reaction buffer (25 mM MOPS pH6.8, 0.01% Brij-35, 5 mM MgCl2, 2 mM DTT, 7 μM ATP) with or without 4 μL containing test compound or vehicle (DMSO, 1% final concentration), in a total volume of 20 μL, in a white 384 Opti plate (Perkin Elmer, catalog number 6007290). After 60 min at room temperature, reactions were stopped by adding 20 μL/well of detection mixture (1× detection buffer (Perkin Elmer, catalog number CR97-100C), 0.5 nM Europium-anti-phosphotyrosine (PT66) (Perkin Elmer, catalog number AD0068), 10 mM EDTA). Readout is performed using the Envision with excitation at 320 nm and measuring emission at 615 nm (Perkin Elmer). Kinase activity was calculated by subtracting relative fluorescence units (RFU) obtained in the presence of a positive control inhibitor (10 μM staurosporine) from RFU obtained in the presence of vehicle. The ability of a test compound to inhibit this activity was determined as: Percentage inhibition=((RFU determined for sample with test compound present−RFU determined for sample with positive control inhibitor)divided by(RFU determined in the presence of vehicle−RFU determined for sample with positive control inhibitor))*100.
(§1) Dose dilution series were prepared for the compounds enabling the testing of dose-response effects in the JAK1 assay and the calculation of the IC50 for the compound. Each compound is routinely tested at concentration of 20 μM followed by a ⅕ serial dilution, 10 points in a final concentration of 1% DMSO. When potency of compound series increases, more dilutions are prepared and/or the top concentration are lowered (e.g. 5 μM, 1 μM). The data are expressed as the average IC50 from the assays±standard error of the mean.

Recombinant human JAK2 = target: T2, Recombinant human JAK2 (Homo sapiens, UniProt O60674); assay: JAK2 Ulight-JAK1 peptide assay; details: Ulight-JAK1(tyr1023) peptide, 7.5 μM ATP
T2 construct: catalytic domain (amino acids 808-1132; catalog number PV4210); GST; purchased Invitrogen PV4210
T2 sequence (O60674 808-1132): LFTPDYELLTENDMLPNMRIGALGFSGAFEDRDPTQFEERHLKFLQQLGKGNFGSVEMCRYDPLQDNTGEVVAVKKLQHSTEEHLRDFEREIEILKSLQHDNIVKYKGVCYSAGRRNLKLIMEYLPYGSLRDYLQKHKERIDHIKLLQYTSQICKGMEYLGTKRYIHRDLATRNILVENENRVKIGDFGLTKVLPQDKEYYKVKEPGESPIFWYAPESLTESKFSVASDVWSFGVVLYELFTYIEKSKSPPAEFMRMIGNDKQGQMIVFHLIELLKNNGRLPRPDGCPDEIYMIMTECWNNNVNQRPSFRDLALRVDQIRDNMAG
Protocol: Recombinant human JAK2 (catalytic domain, amino acids […]; catalog number PV4210) was purchased from Invitrogen. 0.0125 mU of JAK2 was incubated with 25 nM Ulight-JAK1(tyr1023) peptide (Perkin Elmer catalog number TRF0121) in kinase reaction buffer (25 mM HEPES pH7.0, 0.01% Triton X-100, 7.5 mM MgCl2, 2 mM DTT, 7.5 μM ATP) with or without 4 μL containing test compound or vehicle (DMSO, 1% final concentration), in a total volume of 20 μL, in a white 384 Opti plate (Perkin Elmer, catalog number 6007290). After 60 min at room temperature, reactions were stopped by adding 20 μL/well of detection mixture (1× detection buffer (Perkin Elmer, catalog number CR97-100C), 0.5 nM Europium-anti-phosphotyrosine (PT66) (Perkin Elmer, catalog number AD0068), 10 mM EDTA). Readout is performed using the Envision with excitation at 320 nm and measuring emission at 615 nm (Perkin Elmer). Kinase activity was calculated by subtracting relative fluorescence units (RFU) obtained in the presence of a positive control inhibitor (10 μM staurosporine) from RFU obtained in the presence of vehicle. The ability of a test compound to inhibit this activity was determined as: Percentage inhibition=((RFU determined for sample with test compound present−RFU determined for sample with positive control inhibitor)divided by(RFU determined in the presence of vehicle−RFU determined for sample with positive control inhibitor))*100.
as §1, with “each compound” for “the compounds”, “JAK2” for “JAK1”

[1] = target: T3, Recombinant human JAK3 catalytic domain (Homo sapiens, UniProt P52333); assay: JAK3 inhibition assay; details: polyGT substrate, 33P-gamma-ATP filter assay, 1 μM ATP
T3 construct: catalytic domain (amino acids 795-1124; catalog number 08-046); purchased Carna Biosciences 08-046
T3 sequence (P52333 795-1124): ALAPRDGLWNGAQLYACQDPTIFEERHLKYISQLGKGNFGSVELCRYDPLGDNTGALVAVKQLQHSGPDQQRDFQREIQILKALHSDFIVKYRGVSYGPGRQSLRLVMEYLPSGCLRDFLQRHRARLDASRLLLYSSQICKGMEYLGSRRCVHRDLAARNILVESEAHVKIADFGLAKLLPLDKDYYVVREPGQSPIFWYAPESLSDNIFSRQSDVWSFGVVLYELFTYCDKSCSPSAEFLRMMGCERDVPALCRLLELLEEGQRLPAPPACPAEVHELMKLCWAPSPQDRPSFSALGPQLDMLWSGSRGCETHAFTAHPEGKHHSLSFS
Protocol: Recombinant human JAK3 catalytic domain (amino acids 795-1124; catalog number 08-046) was purchased from Carna Biosciences. 0.5 ng JAK3 protein was incubated with 2.5 μg polyGT substrate (Sigma catalog number P0275) in kinase reaction buffer (25 mM Tris pH 7.5, 0.5 mM EGTA, 10 mM MgCl2, 2.5 mM DTT, 0.5 mM Na3VO4, 5 mM b-glycerolphosphate, 0.01% Triton X-100, 1 μM non-radioactive ATP, 0.25 μCi ^33P-gamma-ATP (Perkin Elmer, catalog number NEG602K001MC) final concentrations) with or without 5 μL containing test compound or vehicle (DMSO, 1% final concentration), in a total volume of 25 μL, in a polypropylene 96-well plate (Greiner, V-bottom). After 45 min at 30° C., reactions were stopped by adding 25 μL/well of 150 mM phosphoric acid. All of the terminated kinase reaction was transferred to prewashed (75 mM phosphoric acid) 96 well filter plates (Perkin Elmer catalog number 6005177) using a cell harvester (Perkin Elmer). Plates were washed 6 times with 300 μL per well of a 75 mM phosphoric acid solution and the bottom of the plates was sealed. 40 μL/well of Microscint-20 was added, the top of the plates was sealed and readout was performed using the Topcount (Perkin Elmer). Kinase activity was calculated by subtracting counts per min (cpm) obtained in the presence of a positive control inhibitor (10 μM staurosporine) from cpm obtained in the presence of vehicle. The ability of a test compound to inhibit this activity was determined as: Percentage inhibition=((cpm determined for sample with test compound present−cpm determined for sample with positive control inhibitor)divided by(cpm determined in the presence of vehicle−cpm determined for sample with positive control inhibitor))*100.
Dose dilution series were prepared for the compounds enabling the testing of dose-response effects in the JAK3 assay and the calculation of the IC50 for each compound. Each compound was routinely tested at concentration of 20 μM followed by a ⅕ serial dilution, 10 points in a final concentration of 1% DMSO. When potency of compound series increased, more dilutions were prepared and/or the top concentration was lowered (e.g. 5 μM, 1 μM).

T1 sequence (P23458 866-1154): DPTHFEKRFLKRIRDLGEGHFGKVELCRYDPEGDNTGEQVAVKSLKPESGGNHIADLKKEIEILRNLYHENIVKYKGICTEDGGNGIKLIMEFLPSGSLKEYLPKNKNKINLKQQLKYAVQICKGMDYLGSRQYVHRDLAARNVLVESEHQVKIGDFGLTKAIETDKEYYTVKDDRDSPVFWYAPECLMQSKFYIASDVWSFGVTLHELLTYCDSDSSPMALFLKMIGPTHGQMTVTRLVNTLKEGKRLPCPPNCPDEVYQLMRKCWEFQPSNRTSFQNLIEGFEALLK

Row | SMILES | IC50 (Recombinant human JAK1) | IC50 (Recombinant human JAK2) | IC50 [1]
1 | O=C(Nc1nn2cccc(-c3ccc(C(=O)N4CCCCC4)cc3)c2c1Cl)C1CC1 [Compound 16, N-(3-chloro-4-(4-(piperidine-1-carbonyl)phenyl)pyrazolo[1,5-a]pyridin-2-yl)cyclopropanecarboxamide] | 101 to 500 nM | > 1000 nM | –
2 | COC(=O)N1CCN(Cc2ccc(-c3cccn4nc(NC(C)=O)cc34)cc2)CC1 [Compound 22] | 101 to 500 nM | 101 to 500 nM | –
3 | CC(=O)Nc1cc2c(-c3cnc(OCCn4cccn4)c(F)c3)cccn2n1 [Compound 30] | 101 to 500 nM | 101 to 500 nM | –
4 | CC(=O)Nc1cc2c(-c3ccc(C(=O)N4COCC4(C)C)cc3)cccn2n1 [Compound 31, N-(4-(4-(4,4-dimethyloxazolidine-3-carbonyl)phenyl)pyrazolo[1,5-a]pyridin-2-yl)acetamide] | 101 to 500 nM | 101 to 500 nM | –
5 | CC(=O)Nc1cc2c(-c3ccc(C(=O)N4CCC4)cc3)cccn2n1 [Compound 32, N-(4-(4-(azetidine-1-carbonyl)phenyl)pyrazolo[1,5-a]pyridin-2-yl)acetamide] | 101 to 500 nM | 101 to 500 nM | –
6 | CC(=O)Nc1cc2c(-c3ccc(CC(=O)N4CCC4)cc3)cccn2n1 [Compound 33, N-(4-(4-(2-(azetidin-1-yl)-2-oxoethyl)phenyl)pyrazolo[1,5-a]pyridin-2-yl)acetamide] | 101 to 500 nM | 101 to 500 nM | > 1000 nM
7 | CC(=O)Nc1cc2c(-c3ccc(CC(=O)N4C[C@@H](C)O[C@@H](C)C4)cc3)cccn2n1 [Compound 37, N-(4-(4-(2-((2S,6R)-2,6-dimethylmorpholino)-2-oxoethyl)phenyl)pyrazolo[1,5-a]pyridin-2-yl)acetamide] | > 1000 nM | 101 to 500 nM | –
8 | CC(=O)Nc1cc2c(-c3ccc(C(=O)N4C[C@@H](C)O[C@@H](C)C4)cc3)cccn2n1 [Compound 39, N-(4-(4-((2S,6R)-2,6-dimethylmorpholine-4-carbonyl)phenyl)pyrazolo[1,5-a]pyridin-2-yl)acetamide] | 101 to 500 nM | 101 to 500 nM | –
9 | CC(=O)Nc1cc2c(-c3ccc(C(=O)N4CCCCC4)cc3)cccn2n1 [Compound 40, N-(4-(4-(piperidine-1-carbonyl)phenyl)pyrazolo[1,5-a]pyridin-2-yl)acetamide] | 101 to 500 nM | 101 to 500 nM | –
10 | CC(=O)Nc1cc2c(-c3ccc(C(=O)N4CC(F)(F)C4)cc3)cccn2n1 [Compound 41, N-(4-(4-(3,3-difluoroazetidine-1-carbonyl)phenyl)pyrazolo[1,5-a]pyridin-2-yl)acetamide] | 101 to 500 nM | 101 to 500 nM | –
11 | CC(=O)Nc1cc2c(-c3ccc(C(=O)N4CCOCC4)cc3)cccn2n1 [Compound 42, N-(4-(4-(morpholine-4-carbonyl)phenyl)pyrazolo[1,5-a]pyridin-2-yl)acetamide] | 501 to 1000 nM | 101 to 500 nM | –
